Laboratory results published in BindingDB's records for doi:10.1124/jpet.102.044826 (Taisho Pharmaceutical, 2003).

Assays:
[1] = molecular target: T1, Alpha-2C adrenergic receptor (Homo sapiens, UniProt P18825)
T1 sequence (P18825 whole entry): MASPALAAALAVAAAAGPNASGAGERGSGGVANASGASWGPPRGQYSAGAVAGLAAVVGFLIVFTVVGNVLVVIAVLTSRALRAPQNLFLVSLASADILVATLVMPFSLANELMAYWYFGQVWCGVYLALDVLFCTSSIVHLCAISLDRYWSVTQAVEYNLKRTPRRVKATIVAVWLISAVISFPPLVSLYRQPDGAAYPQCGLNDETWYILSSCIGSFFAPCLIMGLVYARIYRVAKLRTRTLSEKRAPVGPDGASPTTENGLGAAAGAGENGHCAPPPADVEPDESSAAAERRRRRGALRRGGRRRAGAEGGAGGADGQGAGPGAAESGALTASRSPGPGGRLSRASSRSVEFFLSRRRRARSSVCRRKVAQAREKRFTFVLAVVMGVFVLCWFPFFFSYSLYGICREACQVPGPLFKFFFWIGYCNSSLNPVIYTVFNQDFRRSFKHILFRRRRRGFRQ

[2] = molecular target: T2, Alpha-1A adrenergic receptor (Rattus norvegicus, UniProt P43140)
T2 sequence (P43140 whole entry): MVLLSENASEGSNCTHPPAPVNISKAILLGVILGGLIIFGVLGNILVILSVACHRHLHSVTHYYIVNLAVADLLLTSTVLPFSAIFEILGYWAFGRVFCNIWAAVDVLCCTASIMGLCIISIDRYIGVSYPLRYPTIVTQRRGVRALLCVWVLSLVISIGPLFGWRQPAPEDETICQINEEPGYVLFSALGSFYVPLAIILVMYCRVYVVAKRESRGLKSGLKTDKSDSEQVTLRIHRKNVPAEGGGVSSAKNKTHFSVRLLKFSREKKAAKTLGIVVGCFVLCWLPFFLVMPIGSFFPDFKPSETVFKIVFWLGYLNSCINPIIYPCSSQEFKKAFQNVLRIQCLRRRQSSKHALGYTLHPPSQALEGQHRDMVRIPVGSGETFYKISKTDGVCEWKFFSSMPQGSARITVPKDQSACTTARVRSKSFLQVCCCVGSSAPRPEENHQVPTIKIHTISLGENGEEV

## COc1ccc2ccccc2c1CCCCN1CCN(C[C@H](c2ccc(F)cc2)N2CCN(C(C)C)CC2)CC1 [MCL0129]
[1]
  IC50: 1000 nM
[2]
  IC50: 630 nM
